According to article PMC9321663, “The DevTox Germ Layer Reporter Platform: An Assay Adaptation of the Human Pluripotent Stem Cell Test” (Toxics, 2022):
Like-named read-outs stand apart in the source and are kept apart here.

Tests used:
H9 ESCs = settings: global gene expression at 6, 96 and 192 h; cited from earlier work
[1] = tested on: SOX2 (ectoderm and pluripotency marker) in RUES2-GLR cells; test: DevTox GLR-Endo assay: increase in percent SOX2-positive cells (AEID 3095, Sox2_up); settings: for AC50 / Emax: Homo sapiens; for AC50: read-out: ga (winning model); for Emax: read-out: tp (winning model); for MAX_MEAN: tcpl plot AEID3095, maximum mean response; for MAX_MED: tcpl plot AEID3095, maximum median response
[2] = tested on: o/c ratio in H9 embryonic stem cells; settings: Teratogen Index, o/c ratio; cited from earlier work
[3] = tested on: BRA (mesoderm marker) in RUES2-GLR cells; test: DevTox GLR-Endo assay: increase in percent BRA-positive cells (AEID 3096, Bra_up); format: cell-based, human; settings: for HIT−CALL: tcpl plot AEID3096, COFF 0.774; for MAX_MEAN: tcpl plot AEID3096, maximum mean response; for MAX_MED: tcpl plot AEID3096, maximum median response
Procedure: (§1) The total test chemical incubation period was 48 h.
(§2) (Supplementary Materials).

[4] = tested on: SOX17 in H9 human ESC line; settings: SOX17 half-maximal inhibition concentration; read-out: hPST IC50; cited from earlier work
[5] = cited from earlier work; for Development Toxicant Classification: Table S2; for Classification: developmental toxicant classification (Teratogen / Non-Teratogen) of reference and training chemicals, ref DOI per chemical: 10.1093/toxsci/kft239, 10.1093/toxsci/kfaa014, 10.1177/026119290203000204, 10.1038/s41598-020-59542-x; for DT Class.: developmental toxicant classification
[6] = tested on: SOX17 (endoderm marker) in RUES2-GLR cells; test: DevTox GLR-Endo assay: increase in percent SOX17-positive cells (AEID 3093, Sox17_up); format: cell-based, human; settings: for Emax: Homo sapiens; for HIT−CALL: tcpl plot AEID3093, COFF 20.3
Procedure: as §1, §2

RUES2-GLR cells [7] = test: DevTox GLR-Endo assay: decrease in total cell count, cytotoxicity (AEID 3098, CellCount_dn); settings: for Emax: Homo sapiens, read-out: Cell Count % Max Inhibition
[8] = as above; settings: human
H9 human ESC line = settings: cited from earlier work
[9] = tested on: SOX17 (endoderm marker) in RUES2-GLR cells; test: DevTox GLR-Endo assay: decrease in percent SOX17-positive cells (AEID 3094, Sox17_dn); settings: for Hit Call: Table S2, SOX17-positive cells, cutoff 3*bmad; for DevTox ACC: Table S2, percent SOX17-positive cells; for DevTox-GLR Endo ACC: activity concentration at cutoff, SOX17-positive cells; for HIT−CALL: tcpl plot AEID3094, COFF 20.3
Summary of the method: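 RUES2-GLR cells under endoderm differentiation exposed to test chemicals for 48 h in total, with 0.2% DMSO solvent control and SB431542 (1 µM) as developmental-toxicant control. Endpoints: decrease in total cell count and in percent SOX17-positive cells; n = 4 biological replicates minimum.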

H9 embryonic stem cells = settings: concentration at cell viability cutoff; cited from earlier work
RUES2-GLR cells [10] = test: DMSO tolerance test under directed endoderm differentiation (SOX17-positive cells, cell count); format: cell-based, human; settings: DMSO 0.2%
Procedure: To identify biomarker-positive populations during directed endoderm differentiation, RUES2-GLR cells were evaluated by high-content confocal imaging. […] A qualitative loss of SOX2 expression and increased SOX17 expression were evident, indicating loss in pluripotency and commitment to definitive endoderm, respectively (Figure 2A).

[11] = chemicals common with quickPredict
[12] = tcpl plot AEID3093, maximum mean response, read-out: MAX_MEAN
[13] = tcpl plot AEID3093, maximum median response, read-out: MAX_MED
[14] = cytotoxicity half-maximal concentration
[15] = Homo sapiens, 48 h, read-out: DevTox-GLR Endo AC50 (µM), SOX17 half-maximal activity concentration, 48 h exposure
[16] = Homo sapiens, read-out: DevTox % Max Inhibition
[17] = Homo sapiens, read-out: MAX_MEAN
[18] = Homo sapiens, read-out: MAX_MED
[19] = Homo sapiens, read-out: ga (winning model), tcpl plot AEID3094, gain parameter of winning curve fit (log concentration, µM axis), hit calls only (converted)
[20] = Homo sapiens, read-out: tp (winning model)

| SMILES | Cell Count ACC (RUES2-GLR cells [7]; human, 48 h) | AC50 [1] | Emax [1] | MAX_MEAN [1] | MAX_MED [1] | quickPredict TI [2] | Development Toxicant Classification [5] | Classification [5] | DT Class. [5, 11] | Emax [6, 12] | Emax [6, 13] | HIT−CALL [6] | Emax (RUES2-GLR cells [7]) | Emax [9, 16] | Emax [9, 17] | Emax [9, 18] | Hit Call [9] | DevTox ACC ([9]; 48 h exposure) | HIT−CALL [9] | quickPredict CV (H9 embryonic stem cells) | further results |
| --- | --- | --- | --- | --- | --- | --- | --- | --- | --- | --- | --- | --- | --- | --- | --- | --- | --- | --- | --- | --- | --- |
| CC1=C(/C=C/C(C)=C/C=C/C(C)=C/C(=O)O)C(C)(C)CCC1 | 3.839 µM | 87.1 µM | 71.4% | 50.7 Percent Activity | 53.1 Percent Activity | 0.003 µM | Positive | Teratogen | Pos | 4.3% | 3.82% | 0 | 97.6% | 101% | 101% | 101% | Positive | 0.04166 µM | 1 |  | toxicological tipping point concentration (H9 ESCs): 17 ± 11 nM; increase of BRA protein expression (in words) ([3]; AEID 3096, 48 h exposure): lack of significant BRA perturbation; IC50 [4]: 0.07 µM; DT Class. ([5]; chemicals common with hPST): Pos; Developmental Toxicant Classification ([5]; reference chemicals): Positive; DevTox-GLR Endo CC (RUES2-GLR cells [7]; human, 48 h): 3.84 µM; CC50 at 48 h ([8]; RUES2-GLR cells under directed endoderm differentiation): 5.53 µM; hPST TC50 (H9 human ESC line; [14]): 33 µM; hPST TC50 (H9 human ESC line; hPST cytotoxicity): 33 µM; IC50 ([9]; Homo sapiens, 48 h): 0.16 µM; AC50 [9, 15]: 0.1 µM; AC50 [9, 19]: 0.101 µM; Emax [9, 20]: 99.2%; DevTox-GLR Endo ACC ([9]; 48 h exposure): 0.04 µM; % Max Inhibition ([9]; maximum inhibition of SOX17-positive cells, reference chemical testing, 48 h exposure): 93% |
| C[S+](C)[O-] [DMSO, dimethyl sulfoxide] |  |  |  |  |  |  |  |  |  |  |  |  |  |  |  |  |  |  |  |  | effect on cell counts (in words) (RUES2-GLR cells [10]): without affecting cell counts; reduction of the SOX17 population (RUES2-GLR cells [10]): 19.5% |
| CCCC(CCC)C(=O)O [Valproic Acid] | >200 µM |  |  | 1.25 Percent Activity | 0.475 Percent Activity | 155 µM | Positive | Teratogen | Pos | 7.73% | 5.59% | 0 | 18.1% | 22.3% | 22% | 22.3% | Positive | 177.332 µM | 1 | 271 µM | HIT−CALL [3]: 0; MAX_MEAN [3]: 0.771 Percent Activity; MAX_MED [3]: 0.815 Percent Activity; IC50 [4]: 2.6 µM; DT Class. ([5]; chemicals common with hPST): Pos; CC50 at 48 h [8]: > 200 µM; hPST TC50 (H9 human ESC line; [14]): 3.3 µM; hPST TC50 (H9 human ESC line; hPST cytotoxicity): 3.3 µM; SOX17 ACC relative to cytotoxic concentration (in words) [9]: below cytotoxic concentrations; AC50 [9, 15]: 124 µM; AC50 [9, 19]: 123 µM; Emax [9, 20]: 29.3%; DevTox-GLR Endo ACC ([9]; 48 h exposure): 177.33 µM |

Now from value to compound, other results behind:

| Cell Count ACC (RUES2-GLR cells [7]; human, 48 h) | SMILES | AC50 [1] | Emax [1] | MAX_MEAN [1] | MAX_MED [1] | quickPredict TI [2] | Development Toxicant Classification [5] | Classification [5] | DT Class. [5, 11] | Emax [6, 12] | Emax [6, 13] | HIT−CALL [6] | Emax (RUES2-GLR cells [7]) | Emax [9, 16] | Emax [9, 17] | Emax [9, 18] | Hit Call [9] | DevTox ACC ([9]; 48 h exposure) | HIT−CALL [9] | quickPredict CV (H9 embryonic stem cells) | further results |
| --- | --- | --- | --- | --- | --- | --- | --- | --- | --- | --- | --- | --- | --- | --- | --- | --- | --- | --- | --- | --- | --- |
| 4.179 µM | O=c1[nH]cc(F)c(=O)[nH]1 [5-Fluorouracil] | 18.6 µM | 5.33% | 6.64 Percent Activity | 5.57 Percent Activity | 2.02 µM | Positive | Teratogen | Pos | 3.38% | 4.48% | 0 | 91% | 102% | 102% | 102% | Positive | 7.071 µM | 1 | 1.45 µM | IC50 [4]: 0.6 µM; DT Class. ([5]; chemicals common with hPST): Pos; effect on cell count (in words) (RUES2-GLR cells [7]): significant decreases in cell count; DevTox-GLR Endo CC (RUES2-GLR cells [7]; human, 48 h): 20.34 µM; CC50 at 48 h [8]: 5.72 µM; hPST TC50 (H9 human ESC line; [14]): 0.7 µM; hPST TC50 (H9 human ESC line; hPST cytotoxicity): 0.7 µM; AC50 [9, 15]: 8.48 µM; AC50 [9, 19]: 8.49 µM; Emax [9, 20]: 102%; DevTox-GLR Endo ACC ([9]; 48 h exposure): 7.07 µM |
| 0.3474 µM | CN(Cc1cnc2nc(N)nc(N)c2n1)c1ccc(C(=O)N[C@@H](CCC(=O)O)C(=O)O)cc1 [Methotrexate] | 0.0525 µM | 0.771% | 0.917 Percent Activity | 0.899 Percent Activity | 0.059 µM | Positive | Teratogen | Pos | 2.23% | 2.87% | 0 | 44.6% | 24.6% | 22.4% | 24.6% | Negative | >200 µM | 0 | 0.062 µM | HIT−CALL [3]: 1; MAX_MEAN [3]: 1.26 Percent Activity; MAX_MED [3]: 1.19 Percent Activity; effect on cell count (in words) (RUES2-GLR cells [7]): significant decreases in cell count; DevTox-GLR Endo CC (RUES2-GLR cells [7]; human, 48 h): 0.35 µM; effect on cell count (in words) (RUES2-GLR cells [7]; human, 48 h): significant cell loss that did not impact SOX17-positive populations; hit call designation (in words) ([9]; DevTox GLR-Endo prediction against developmental toxicant classification): borderline calls; Emax ([9]; Homo sapiens, read-out: maximum observed effect level class (% max inhibition)): 20 to 80% |
| >200 µM | O=C(O)c1ccccc1O [Salicylic Acid] |  |  | 0.533 Percent Activity | 0.494 Percent Activity | 513 µM |  | Non-Teratogen | Neg | 8.74% | 9.69% | 0 | 11.5% | 6.91% | 7.1% | 6.91% | Negative | >200 µM | 0 | 1795 µM | HIT−CALL [3]: 0; MAX_MEAN [3]: 0.835 Percent Activity; MAX_MED [3]: 0.894 Percent Activity |
